Reference: US5175153A, “Substituted alpha-amino acids having pharmaceutical activity” (Warner-Lambert Company, priority 1988, dated 1992)
pIC50: −log10 of the molar value. Where two headings read alike, the source gives them in different places. One block for each molecule: values may come before it.

Experiments:
[1] = Observation of drug effects or normal behavior in rats dosed with NMDA
[2] = test system: NMDA-Induced Subconvulsant Behavior; test: Inhibitory effects in NMDA-induced subconvulsant behavior (tail biting) in Fisher rats; format: in vivo; details: for % Responders: 30 min before 50 mg/kg IV NMDA; for Latency (min ± S.E.) / % I: 30 min before NMDA; for Latency (min ± S.E.): 60 minutes=maximum; for % I: [1 - % test responders/% control responders] × 100
Description: In a modification of those methods, subconvulsant tail biting was induced in Fisher rats by intravenous injection of 50 mg/kg NMDA. The incidence (%) and response time (60 minutes=maximum) of control and drug treated rats (I.P., 30 minutes before NMDA) were compared. The inhibitory effects of 2-amino-7-phosphonoheptanoic acid and Example VIII are shown in Table 2 (% responders and time (latency in minutes)).
*Rats were dosed IP, 2 mls/kg 30 min before NMDA.
**% I = [1 - % test responders/% control responders] × 100.

[3] = biological target: NMDA receptor; test: NMDA receptor binding assay using [^3 H]CPP as antagonist ligand; details: for pIC50: [^3 H]CPP
Description: The activity of the compounds of the formula I is shown in vitro in an NMDA receptor binding assay based on the use of [^3 H]CPP as antagonist ligand in a manner essentially as set out by B. E. Murphy et al in J. Pharm.

[4] = test system: NMDA-induced seizure and death; test: Inhibition of NMDA-induced seizures and death in mice; format: in vivo, male CF-1 mice; details: Mus musculus
Description: Intraperitoneal injection of N-methyl-D-aspartic acid (NMDA) has been previously reported to induce clonic seizures in C57BL/6J mice (Bernard, P.S. et al, Models of N-methyl-D -aspartate antagonism: A comparison of 2-amino-7-phosphonoheptanoic acid with muscle relaxant drugs, 15th Annual Meeting, International Society for Neuroscience, 1985). In a modified version of the above protocol, male CF-1 mice received an intravenous injection of 25 mg/kg NMDA--behind the lateral aspect of the right eye. This induced a rapidly onsetting seizure followed shortly thereafter by death. […] ED50 were determined for inhibition of seizures and death through comparison of drug treatment groups (n=10) with their respective vehicle controls (n=10).

[5] = 0.5 h, IV, five minutes prior to 25 mg/kg IV NMDA, survivors at thirty minutes, read-out: Inhibition of Death ED50
[6] = IV, five minutes prior to 25 mg/kg IV NMDA, read-out: Inhibition of Seizures ED50

SMILES: NC(CCCCCP(=O)(O)O)C(=O)O (centres unmarked) [APH, 2-amino-7-phosphonoheptanoic acid, reference compound]
- drug induced behavioral effects ([1]; 10 mg/kg IP): no drug induced behavioral effects
- ataxia ([1]; 30 mg/kg IP): no ataxia
- exploratory behavior ([1]; 30 mg/kg IP, versus controls): slightly less exploratory than controls
- % Responders ([2]; 10 mg/kg IP, saline control 9/10): 6/10
- Latency (min ± S.E.) ([2]; 10 mg/kg IP, p < 0.001, saline 15.8 ± 5.3): 43.3 ± 5.8 min
- % I ([2]; 10 mg/kg IP): 33.3%
- % Responders ([2]; 30 mg/kg IP, saline control 9/11): 1/10
- Latency (min ± S.E.) ([2]; 30 mg/kg IP, p < 0.01, saline 33.1 ± 5.8): 59.0 ± 1.0 min
- % I ([2]; 30 mg/kg IP): 87.8%
- pIC50 [3]: 6.10
- ED50 ([4]; iv, 0.5 h, read-out: Inhibition of Death ED50): 30 mg/kg
- ED50 ([4]; iv, read-out: Inhibition of Seizures ED50): > 30 mg/kg

- pIC50 [3]: 4.75
SMILES: NC(C(=O)O)c1cccc(P(=O)(O)O)c1 (racemic) [Example VI A, (±)-α-Amino-3-Phosphonobenzeneacetic Acid]

SMILES: NC(Cc1cccc(CP(=O)(O)O)c1)C(=O)O (centres unmarked) [Example III]
- pIC50 [3]: 5.45
- ED50 [4, 5]: 37 mg/kg
- ED50 [4, 6]: ~60 mg/kg

SMILES: NC(C(=O)O)c1ccc(CP(=O)(O)O)cc1 (racemic) [Example VIII, (±)-α-Amino-4-(Phosphonomethyl)Benzeneacetic Acid]
- drug induced behavioral effects ([1]; 37 mg/kg and 25 mg/kg IP): no drug induced behavioral effects
- % Responders ([2]; 25 mg/kg IP, phosphate buffer control 9/10): 2/9
- Latency (min ± S.E.) ([2]; 25 mg/kg IP, p < 0.01, phosphate buffer 24.8 ± 4.9): 51.6 ± 5.6 min
- % I ([2]; 25 mg/kg IP): 77.8%
- % Responders ([2]; 37 mg/kg IP, phosphate buffer control 9/10): 1/10
- Latency (min ± S.E.) ([2]; 37 mg/kg IP, p < 0.001, phosphate buffer 24.8 ± 4.9): 55.5 ± 4.5 min
- % I ([2]; 37 mg/kg IP): 88.9%
- inhibitory effects compared with 7-APH ([2]; in words, Table 2): inhibitory effects similar in potency and efficacy to 7-APH
- pIC50 [3]: 6.00
- most active of the most preferred compounds ([3]; in words, test not given): most active compound
- ED50 [4, 5]: 7.6 mg/kg
- ED50 [4, 6]: > 30 mg/kg

- pIC50 [3]: 4.93
SMILES: NC(C(=O)O)c1cccc(CP(=O)(O)O)c1 (stereo not drawn) [Example II, Benzeneacetic Acid, α-Amino-3-(Phosphonomethyl)-]
